# System: five-mutation introduced D-type amino acid dehydrogenase (Met155Leu, Val159Gly, Thr174Ile, Arg184Met, His230Asn)
# Test: D-amino acid synthesis activity, five-mutation enzyme
# Format: biochemical, Numidum massiliense
# Settings: 5 mM 2-oxo acid, 0.1 mM NADH, 200 mM ammonium chloride, pH 9.5, 50° C.
# Description: In order to prepare a gene for a mutant enzyme in which five types of mutations (Met155Leu, Val159Gly, Thr174Ile, Arg184Met, and His230Asn) are introduced into the D-type amino acid dehydrogenase derived from N. massiliense, the six mutation-introduced D-type amino acid dehydrogenase/pET-21a(+) prepared above was used as a template to prepare the expression vector by PCR using “PrimeSTAR Max DNA Polymerase” available from Takara Bio Inc. PCR was performed according to the manufacturer's protocol. A PCR reaction solution was prepared by containing 0.3 μM of each of the following primers and 50 ng of templet DNA as described above.
# (§1) The activity of the enzyme was measured by determining a decrease in absorbance at wavelength of 340 nm of NADPH or NADH produced by the catalytic reaction of the enzyme. […] The absorbance was measured by an ultraviolet-visible spectrophotometer UV-1800 (available from SHIMADZU).
row,Structure (SMILES),"D-amino acid synthesis activity (specific activity), Five-mutation enzyme, NADH"
1,CC(C)CC(=O)C(=O)O [2-oxo-4-methylpentanoic acid],0.055 µmol/min/mg
2,O=C(O)CCC(=O)C(=O)O [2-oxoglutaric acid],No
3,CSCCC(=O)C(=O)O [2-oxo-4-(methylthio)butanoic acid],0.069 µmol/min/mg
4,CCC(C)C(=O)C(=O)O (stereo not shown) [2-oxo-3-methylpentanoic acid],0.025 µmol/min/mg
5,O=C(O)CC(=O)C(=O)O [2-oxobutanedioic acid],0.25 µmol/min/mg

# Same assay, conditions: 5 mM 2-oxo acid, 0.1 mM NADPH, 200 mM ammonium chloride, pH 9.5, 50° C.
row,Structure (SMILES),"D-amino acid synthesis activity (specific activity), Five-mutation enzyme, NADPH"
1,CC(C)CC(=O)C(=O)O [2-oxo-4-methylpentanoic acid],9.0 µmol/min/mg
2,O=C(O)CCC(=O)C(=O)O [2-oxoglutaric acid],No
3,CSCCC(=O)C(=O)O [2-oxo-4-(methylthio)butanoic acid],12.3 µmol/min/mg
4,CCC(C)C(=O)C(=O)O (stereo not shown) [2-oxo-3-methylpentanoic acid],4.0 µmol/min/mg
5,O=C(O)CC(=O)C(=O)O [2-oxobutanedioic acid],0.39 µmol/min/mg

# System: three-mutation introduced D-type amino acid dehydrogenase (Thr174Ile, Arg184Met, His230Asn)
# Test: D-amino acid synthesis activity, three-mutation enzyme
# Format: biochemical, Numidum massiliense
# Settings: 5 mM 2-oxo acid, 0.1 mM NADH, 200 mM ammonium chloride, pH 9.5, 50° C.
# From the text: DNA encoding polypeptide in which three types of mutations (Thr174Ile, Arg184Met, and His230Asn) were introduced into the amino acid sequence of D-type amino acid dehydrogenase derived from N. massiliense was obtained by synthesis. This was cleaved with restriction enzymes NdeI and EcoRI, separated by agarose gel electrophoresis, and then extracted and purified from the gel. DNA fragments after a restriction enzyme treatment were incorporated into restriction enzyme sites (NdeI and EcoRI) of pET-21a(+) (available from Novagen) of a plasmid for protein expression by a ligation reaction to construct an expression vector that retains three-mutation introduced D-type amino acid dehydrogenase gene. The expression vector was constructed such that the three-mutation introduced D-type amino acid dehydrogenase gene was incorporated into downstream of the T7 promoter and the […] binding site, and upstream of the T7 terminator.
# as §1
row,Structure (SMILES),"D-amino acid synthesis activity (specific activity), Three-mutation enzyme, NADH"
1,CC(C)CC(=O)C(=O)O [2-oxo-4-methylpentanoic acid],0.044 µmol/min/mg
2,O=C(O)CCC(=O)C(=O)O [2-oxoglutaric acid],No
3,CSCCC(=O)C(=O)O [2-oxo-4-(methylthio)butanoic acid],0.013 µmol/min/mg
4,CCC(C)C(=O)C(=O)O (stereo not shown) [2-oxo-3-methylpentanoic acid],0.043 µmol/min/mg
5,O=C(O)CC(=O)C(=O)O [2-oxobutanedioic acid],0.12 µmol/min/mg

# Same assay, conditions: 5 mM 2-oxo acid, 0.1 mM NADPH, 200 mM ammonium chloride, pH 9.5, 50° C.
row,Structure (SMILES),"D-amino acid synthesis activity (specific activity), Three-mutation enzyme, NADPH"
1,CC(C)CC(=O)C(=O)O [2-oxo-4-methylpentanoic acid],4.6 µmol/min/mg
2,O=C(O)CCC(=O)C(=O)O [2-oxoglutaric acid],No
3,CSCCC(=O)C(=O)O [2-oxo-4-(methylthio)butanoic acid],5.2 µmol/min/mg
4,CCC(C)C(=O)C(=O)O (stereo not shown) [2-oxo-3-methylpentanoic acid],4.7 µmol/min/mg
5,O=C(O)CC(=O)C(=O)O [2-oxobutanedioic acid],2.0 µmol/min/mg

# System: D-type amino acid dehydrogenase derived from N. massiliense (wild type)
# Test: D-amino acid synthesis activity, wild type enzyme
# Format: biochemical, Numidum massiliense
# Settings: 5 mM 2-oxo acid, 0.1 mM NADH, 200 mM ammonium chloride, pH 9.5, 50° C.
# Description: as §1
row,Structure (SMILES),"D-amino acid synthesis activity (specific activity), Wild type, NADH"
1,CC(C)CC(=O)C(=O)O [2-oxo-4-methylpentanoic acid],No
2,O=C(O)CCC(=O)C(=O)O [2-oxoglutaric acid],No
3,CSCCC(=O)C(=O)O [2-oxo-4-(methylthio)butanoic acid],No
4,CCC(C)C(=O)C(=O)O (stereo not shown) [2-oxo-3-methylpentanoic acid],No
5,O=C(O)CC(=O)C(=O)O [2-oxobutanedioic acid],0.13 µmol/min/mg

# Same assay, conditions: 5 mM 2-oxo acid, 0.1 mM NADPH, 200 mM ammonium chloride, pH 9.5, 50° C.
row,Structure (SMILES),"D-amino acid synthesis activity (specific activity), Wild type, NADPH"
1,CC(C)CC(=O)C(=O)O [2-oxo-4-methylpentanoic acid],0.803 µmol/min/mg
2,O=C(O)CCC(=O)C(=O)O [2-oxoglutaric acid],0.11 µmol/min/mg
3,CSCCC(=O)C(=O)O [2-oxo-4-(methylthio)butanoic acid],2.0 µmol/min/mg
4,CCC(C)C(=O)C(=O)O (stereo not shown) [2-oxo-3-methylpentanoic acid],0.18 µmol/min/mg
5,O=C(O)CC(=O)C(=O)O [2-oxobutanedioic acid],5.2 µmol/min/mg

# System: six-mutation introduced D-type amino acid dehydrogenase (Asp95Ser, Met155Leu, Val159Gly, Thr174Ile, Arg184Met, His230Asn)
# Test: D-amino acid synthesis activity, six-mutation enzyme
# Format: biochemical, Numidum massiliense
# Settings: 5 mM 2-oxo acid, 0.1 mM NADH, 200 mM ammonium chloride, pH 9.5, 50° C.
# Description: DNA encoding polypeptide into which six types of mutations (Asp95Ser, Met155Leu, Val159Gly, Thr174Ile, Arg184Met, and His230Asn) were introduced into the amino acid sequence of D-type amino acid dehydrogenase derived from N. massiliense was obtained by synthesis. An expression vector that retains the six-mutation introduced D-type amino acid dehydrogenase gene was further constructed in the same manner as described above.
# as §1
row,Structure (SMILES),"D-amino acid synthesis activity (specific activity), Six-mutation enzyme, NADH"
1,CC(C)CC(=O)C(=O)O [2-oxo-4-methylpentanoic acid],0.011 µmol/min/mg
2,O=C(O)CCC(=O)C(=O)O [2-oxoglutaric acid],No
3,CSCCC(=O)C(=O)O [2-oxo-4-(methylthio)butanoic acid],0.024 µmol/min/mg
4,CCC(C)C(=O)C(=O)O (stereo not shown) [2-oxo-3-methylpentanoic acid],0.0030 µmol/min/mg
5,O=C(O)CC(=O)C(=O)O [2-oxobutanedioic acid],0.14 µmol/min/mg

# Same assay, conditions: 5 mM 2-oxo acid, 0.1 mM NADPH, 200 mM ammonium chloride, pH 9.5, 50° C.
row,Structure (SMILES),"D-amino acid synthesis activity (specific activity), Six-mutation enzyme, NADPH"
1,CC(C)CC(=O)C(=O)O [2-oxo-4-methylpentanoic acid],1.2 µmol/min/mg
2,O=C(O)CCC(=O)C(=O)O [2-oxoglutaric acid],No
3,CSCCC(=O)C(=O)O [2-oxo-4-(methylthio)butanoic acid],2.8 µmol/min/mg
4,CCC(C)C(=O)C(=O)O (stereo not shown) [2-oxo-3-methylpentanoic acid],0.23 µmol/min/mg
5,O=C(O)CC(=O)C(=O)O [2-oxobutanedioic acid],0.44 µmol/min/mg
